{"source": "patent US20220079889A1", "about": "“USE OF CANNABANOIDS IN THE TREATMENT OF PROLIFERATIVE DIABETIC RETINOPATHY” (VERDANT PHARMACEUTICALS, LLC, priority 2020, published 2022)", "key": {"[1]": {"biological_target": "T1, monoamine oxidase (MAO)-A (Homo sapiens, UniProt P21397)", "T1 sequence (P21397 1-527)": "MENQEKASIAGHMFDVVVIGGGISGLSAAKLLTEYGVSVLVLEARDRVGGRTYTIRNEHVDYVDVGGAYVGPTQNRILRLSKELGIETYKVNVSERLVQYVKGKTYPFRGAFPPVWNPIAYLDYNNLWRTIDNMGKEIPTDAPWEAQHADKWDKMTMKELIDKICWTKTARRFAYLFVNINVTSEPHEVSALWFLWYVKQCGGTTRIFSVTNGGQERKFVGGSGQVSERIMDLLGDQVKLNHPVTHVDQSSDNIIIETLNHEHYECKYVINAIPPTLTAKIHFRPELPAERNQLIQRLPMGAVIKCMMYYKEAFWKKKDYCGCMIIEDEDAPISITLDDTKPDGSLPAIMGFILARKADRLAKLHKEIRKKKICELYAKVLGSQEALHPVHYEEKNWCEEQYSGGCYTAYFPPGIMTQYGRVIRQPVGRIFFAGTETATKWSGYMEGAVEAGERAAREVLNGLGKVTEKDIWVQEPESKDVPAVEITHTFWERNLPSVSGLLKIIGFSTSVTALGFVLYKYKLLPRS", "settings": "functionally related monoamine oxidase; read-out: IC50 against MAO-A; cited from earlier work"}, "MAO-3": {"biological_target": "T2, MAO-3 (Homo sapiens, UniProt P27338)", "T2 sequence (P27338 1-520)": "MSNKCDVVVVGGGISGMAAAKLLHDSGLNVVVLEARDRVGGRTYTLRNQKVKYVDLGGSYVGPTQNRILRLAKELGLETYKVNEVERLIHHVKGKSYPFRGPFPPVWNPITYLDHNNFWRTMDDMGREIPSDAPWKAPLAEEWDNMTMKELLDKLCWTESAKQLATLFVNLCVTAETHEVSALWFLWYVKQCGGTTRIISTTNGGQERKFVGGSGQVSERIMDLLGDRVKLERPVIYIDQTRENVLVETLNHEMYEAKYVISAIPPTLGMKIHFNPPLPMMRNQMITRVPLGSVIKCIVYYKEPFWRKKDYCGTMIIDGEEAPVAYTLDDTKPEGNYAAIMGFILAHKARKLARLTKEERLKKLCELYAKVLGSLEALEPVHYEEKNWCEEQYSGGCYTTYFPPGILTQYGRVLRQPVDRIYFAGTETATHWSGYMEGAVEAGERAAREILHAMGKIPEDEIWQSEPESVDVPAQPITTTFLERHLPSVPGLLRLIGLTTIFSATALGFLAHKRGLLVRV", "settings": "functionally related monoamine oxidase; read-out: IC50 against MAO-3; cited from earlier work"}, "[2]": {"test_system": "vascular leakage from the CNV lesions", "assay": "Laser injury CNV model, fluorescein angiography grading of leakage", "type": "in vivo, Brown-Norway rats", "settings": "rats", "protocol": "Lewis rats were euthanized by overdose anesthesia and perfused with PBS (500 ml/kg body weight (BW)). Eyes were immediately enucleated and the retinal pigment epithelium (RPE)-choroid complex was obtained from the rat eyes and homogenized in extraction reagent (TRIzol Reagent; Invitrogen, Carlsbad, Calif.). As a control, the retinal tissues were separately obtained and processed. Total RNA was prepared according to the manufacturer's protocol, and equal amounts ([…]) of total RNA were reverse transcribed with a First-Strand cDNA synthesis kit (GE Healthcare, Buckinghamshire, UK) at 37° C. for 1 hour in a 15 μl reaction volume. […] PCR products were analyzed by electrophoresis in a 1.5% agarose gel and stained with ethidium bromide ([…]). The expected sizes of the amplified cDNA fragments of CB and GAPDH were 341 bp and 387 bp, respectively Band densities were quantified using NIH Image 1.41 software (available by ftp from zippy.nimh.nih.gov/or from the web site, rsb info.nih.gov/nih-image: developed by Wayne Rasband, National Institutes of Health, Bethesda, Md.). […]\nSeven days after laser injury, vascular leakage from the CNV lesions was assessed using fluorescein angiography (FA), as described previously (Zambarakji et al. (2001) IOVS 42: 1553-60). […]"}}, "data": [{"smiles": "CC(=O)Nc1nc(CCc2ccc(NC(=N)NN)cc2)c(Cc2ccc(S(C)(=O)=O)cc2)s1", "note": "[Compound II]", "values": [{"measurement": "IC50", "setting": "[1]", "value": "> 10", "unit": "µM"}, {"measurement": "IC50", "setting": "MAO-3", "value": "> 10", "unit": "µM"}, {"measurement": "effect on fluorescent angiographic leakage (in words)", "setting": "[2]", "value": "significantly decreased"}]}]}
